Read-outs that look alike come from different tables or passages of the source. Residues, ends and D or L forms follow the SMILES beside them. No end group written: not given here.
Columns and labels:
HLA-DQ7.5 [1] = biological target: HLA-DQ7.5 (Homo sapiens, UniProt P01909+P01920); test: MHC II/peptide competition binding assay, HLA-DQ7.5
Procedure: The peptides were synthesized as purified material on the 2 mg scale with free acid C-termini (A&A labs, USA). One skilled in the art would appreciate that the 15-mers used included shorter de-epitoped high molecular weight glutenin peptide sequences (mutated repeating antigenic units), as described throughout. For example, Table 2 provides a listing of 15-mers and the shorter mutated repeating antigenic units present therein.
Briefly, competition assays using different concentrations of wild-type (WT) and modified glutenin peptides were conducted by diluting the peptides in NP40 buffer, and incubation for 2-4 days with purified MHC II and a radiolabeled known MHC binding peptide (peptide probe). MHC II molecules were purified by affinity chromatography, and peptides were radiolabeled using the chloramine T method. After an incubation period, the bound and unbound radiolabeled species were separated, and their relative amounts were determined by either size-exclusion gel-filtration chromatography or monoclonal antibody capture of MHC. The percent of bound radioactivity was then determined.

HLA-DQ2.2 [2] = biological target: HLA-DQ2.2 (Homo sapiens, UniProt P01909+P01920, A45G/A70V/C70K/D167G/D89A/E106A/E183D/E77G/E98D/F237L/F77L/G63E/H199R/I129T/K197E/L107V/L178F/L74F/N214S/P84L/P87L/Q57E/Q76R/R75H/S185I/S97I/T103K/T109R/T172A/T60S/V73L/V78E/V99I/Y48F/Y58L/Y62S/Y69I/Y79F); test: MHC II/peptide competition binding assay, HLA-DQ2.2
Procedure: (§1) One skilled in the art would appreciate that the 15-mers used included shorter de-epitoped high molecular weight glutenin peptide sequences (mutated repeating antigenic units), as described throughout. For example, Table 2 provides a listing of 15-mers and the shorter mutated repeating antigenic units present therein. […] MHC II molecules were purified by affinity chromatography, and peptides were radiolabeled using the chloramine T method. After an incubation period, the bound and unbound radiolabeled species were separated, and their relative amounts were determined by either size-exclusion gel-filtration chromatography or monoclonal antibody capture of MHC. The percent of bound radioactivity was then determined.

HLA-DQ2.5 [3] = biological target: HLA-DQ2.5 (Homo sapiens, UniProt P01909+P01920, A45G/A70V/D89A/E106A/E77G/E98D/H199R/L107V/N214S/P84L/P87L/T103K/T109R/T172A/T60S/V78E/V99I/Y58L/Y62S/Y69I/Y79F); test: MHC II/peptide competition binding assay, HLA-DQ2.5
Procedure: as §1

HLA-DQ8 [4] = biological target: HLA-DQ8 (Homo sapiens, UniProt P01909+P01920, A209T/A45G/C70Q/D89A/DUP78-78/E183D/E77G/F237L/G63E/H199R/I129T/K197E/L178F/L74F/L98V/Q57E/Q76R/S185I/S97I/T217I/T49S/V73L/Y58L); test: MHC II/peptide competition binding assay, HLA-DQ8
Procedure: as §1

[5] = test system: Gluten-reactive T-cell lines (TCLs) from celiac disease patients' biopsies; test: T-cell activation assay (IFN-γ ELISA); type: cell-based, human; conditions: peptides 10 μM, 48 h; positive if IFNγ ≥2-fold vs control and significantly higher (one-sided t-test)
Procedure: 200 mg of protein were first incubated in 5% formic acid with 4 mg pepsin for 4 hours in 37° C. Then the sample was evaporated using speedVac. On the following day, the protein was incubated with 4 mg chymotrypsin in 20 mM ammonium-bicarbonate for 4 hours in 37° C., followed by speedVac evaporation. The concentration of the digest was then measured, and the digest was deamidated using transglutaminase, 2 U per 7 mg digest for 6 hours in 37° C. The samples were then cleaned using a C18 column, dried and resuspended in media at a concentration of 2 mg/ml. […]
TCLs from celiac disease patients' biopsies were assayed for responses to deamidated PCT-HMW proteins and HMW peptides by the detection of IFN-7 by enzyme-linked immunosorbent assay (ELISA), as previously described (Gianfrani, Carmen, et al. “Gliadin-specific type 1 regulatory T cells from the intestinal mucosa of treated celiac patients inhibit pathogenic T cells.” The journal of immunology 177.6 (2006): 4178-4186.). […] The reaction was stopped, and the plate was read on the ELISA plate reader at […]. The results were analyzed using Graphpad Prism and IFNγ levels were determined. […]

HLA-DQ7.5 [6] = test: MHC II competition binding assay (purified MHC II, radiolabeled probe peptide as competitor)
HLA-DQ8 [7] = test: as above
HLA-DQ2.5 [8] = test: as above
HLA-DQ2.2 [9] = test: as above
[10] = Table 3, 15-mer peptides, >40000 signifies binding is undetectable by assay

C[C@@H](O)[C@H](NC(=O)[C@H](CO)NC(=O)[C@@H](NC(=O)[C@@H]1CCCN1C(=O)[C@H](Cc1ccc(O)cc1)NC(=O)[C@H](Cc1c[nH]cn1)NC(=O)[C@H](Cc1c[nH]c2ccccc12)NC(=O)[C@H](CCC(=O)O)NC(=O)[C@H](CCC(N)=O)NC(=O)CNC(=O)[C@@H](N)CCC(N)=O)[C@@H](C)O)C(=O)N[C@@H](CCC(=O)O)C(=O)N[C@@H](CCC(N)=O)C(=O)N[C@@H](CO)C(=O)NCC(=O)O [P1h] (H-QGQEWHYPTSTEQSG-OH)
IC50 (HLA-DQ7.5 [1]; [10]): > 40 µM | IC50 (HLA-DQ2.2 [2]; [10]): 5.72 µM | IC50 (HLA-DQ2.5 [3]; [10]): > 40 µM | IC50 (HLA-DQ8 [4]; [10]): > 40 µM

C[C@@H](O)[C@H](NC(=O)[C@@H]1CCCN1C(=O)[C@H](Cc1ccc(O)cc1)NC(=O)[C@H](Cc1ccc(O)cc1)NC(=O)CNC(=O)[C@H](CCCCN)NC(=O)[C@H](CCC(N)=O)NC(=O)CNC(=O)[C@@H](N)CCC(N)=O)C(=O)N[C@@H](CO)C(=O)N1CCC[C@H]1C(=O)N[C@@H](Cc1c[nH]cn1)C(=O)N[C@@H](CCC(N)=O)C(=O)N[C@@H](CO)C(=O)NCC(=O)O [SEQ ID NO: 143] (H-QGQKGYYPTSPHQSG-OH; N-terminus assumed)
T-cell activation (IFN-γ levels by ELISA) [5]: abolishment of T-cell activation | IC50 (HLA-DQ2.5 [3]): 34.4 µM | IC50 (HLA-DQ8 [4]): > 40 µM

CC(C)C[C@H](NC(=O)CNC(=O)[C@H](CCCNC(=N)N)NC(=O)CNC(=O)[C@H](CCC(=O)O)NC(=O)[C@H](CCC(N)=O)NC(=O)CNC(=O)[C@@H](N)CCC(N)=O)C(=O)N[C@H](C(=O)N[C@@H](CO)C(=O)N1CCC[C@H]1C(=O)N[C@@H](Cc1c[nH]cn1)C(=O)N[C@@H](CCC(N)=O)C(=O)N[C@@H](CO)C(=O)NCC(=O)O)[C@@H](C)O [SEQ ID NO: 144] (H-QGQEGRGLTSPHQSG-OH)
IC50 (HLA-DQ7.5 [1]): 39.3 µM | IC50 (HLA-DQ2.2 [2]): > 40 µM | IC50 (HLA-DQ2.5 [3]): > 40 µM | IC50 (HLA-DQ8 [4]): > 40 µM

C[C@@H](O)[C@H](NC(=O)[C@@H]1CCCN1C(=O)[C@H](Cc1ccc(O)cc1)NC(=O)[C@H](CCCNC(=N)N)NC(=O)CNC(=O)[C@H](CCC(=O)O)NC(=O)[C@H](CCC(N)=O)NC(=O)CNC(=O)[C@@H](N)CCC(N)=O)C(=O)N[C@@H](CO)C(=O)N1CCC[C@H]1C(=O)N[C@@H](CCCCN)C(=O)N[C@@H](CCC(N)=O)C(=O)N[C@@H](CO)C(=O)NCC(=O)O [SEQ ID NO: 146] (H-QGQEGRYPTSPKQSG-OH)
IC50 (HLA-DQ7.5 [1]): > 40 µM | IC50 (HLA-DQ2.2 [2]): > 40 µM | IC50 (HLA-DQ2.5 [3]): > 40 µM | IC50 (HLA-DQ8 [4]): > 40 µM

CC(C)C[C@H](NC(=O)[C@H](CO)NC(=O)[C@@H](NC(=O)[C@@H]1CCCN1C(=O)[C@H](Cc1ccc(O)cc1)NC(=O)[C@H](Cc1ccc(O)cc1)NC(=O)CNC(=O)[C@@H]1CCCN1C(=O)[C@H](CCC(N)=O)NC(=O)CNC(=O)[C@@H](N)CCC(N)=O)[C@@H](C)O)C(=O)N[C@H](C(=O)N[C@@H](CCC(N)=O)C(=O)N[C@@H](CO)C(=O)NCC(=O)O)[C@@H](C)O [SEQ ID NO: 147] (H-QGQPGYYPTSLTQSG-OH)
IC50 (HLA-DQ7.5 [1]): > 40 µM | IC50 (HLA-DQ2.2 [2]): > 40 µM | IC50 (HLA-DQ2.5 [3]): > 40 µM | IC50 (HLA-DQ8 [4]): > 40 µM

CC(C)C[C@H](NC(=O)[C@H](CC(=O)O)NC(=O)[C@H](CCCNC(=N)N)NC(=O)CNC(=O)[C@H](CCC(=O)O)NC(=O)[C@H](CCC(N)=O)NC(=O)CNC(=O)[C@@H](N)CCC(N)=O)C(=O)N[C@H](C(=O)N[C@@H](CO)C(=O)N1CCC[C@H]1C(=O)N[C@@H](CCCCN)C(=O)N[C@@H](CCC(N)=O)C(=O)N[C@@H](CO)C(=O)NCC(=O)O)[C@@H](C)O [SEQ ID NO: 169] (H-QGQEGRDLTSPKQSG-OH)
IC50 (HLA-DQ7.5 [1]): > 40 µM | IC50 (HLA-DQ2.2 [2]): > 40 µM | IC50 (HLA-DQ2.5 [3]): > 40 µM | IC50 (HLA-DQ8 [4]): > 40 µM

C[C@H](NC(=O)[C@@H]1CCCN1C(=O)CNC(=O)[C@H](Cc1c[nH]cn1)NC(=O)CNC(=O)[C@H](CCC(=O)O)NC(=O)[C@H](CCC(N)=O)NC(=O)CNC(=O)[C@@H](N)CCC(N)=O)C(=O)N[C@@H](CO)C(=O)N1CCC[C@H]1C(=O)N[C@@H](CCCCN)C(=O)N[C@@H](CCC(N)=O)C(=O)N[C@@H](CO)C(=O)NCC(=O)O [SEQ ID NO: 174] (H-QGQEGHGPASPKQSG-OH)
IC50 (HLA-DQ7.5 [1]): 16.4 µM | IC50 (HLA-DQ2.2 [2]): > 40 µM | IC50 (HLA-DQ2.5 [3]): > 40 µM | IC50 (HLA-DQ8 [4]): > 40 µM

QGAAGYYPTSPRQSG-OH [P1c, modified 15-mer peptide … (SEQ ID NO: 51)]
IC50 (HLA-DQ7.5 [6]): 19.9 µM

QGQPRYYPTSPRQSG-OH [P1e, modified 15-mer peptide … (SEQ ID NO: 53)]
IC50 (HLA-DQ8 [7]): 32.5 µM | IC50 (HLA-DQ2.5 [8]): 33.2 µM | IC50 (HLA-DQ7.5 [6]): 19.4 µM

QGQEWHYPTSTEQSG-OH [P1h, modified 15-mer peptide … (SEQ ID NO: 56)]
IC50 (HLA-DQ2.2 [9]): 5.72 µM

QGQEGRGLTSPHQSG-OH [modified 15-mer peptide … (SEQ ID NO: 144)]
IC50 (HLA-DQ7.5 [6]): 39.3 µM

QGQQGYYPTSPQQSG-OH [P1a, native HMW glutenin 15-mer peptide … (SEQ ID NO: 49)]
IC50 (HLA-DQ8 [7]): 14.2 µM | IC50 (HLA-DQ2.5 [8]): 29.8 µM

QGQEGHGPASPKQSG-OH [modified 15-mer peptide … (SEQ ID NO: 174)]
IC50 (HLA-DQ7.5 [6]): 16.4 µM

QGQEPYGPSSPEQSG-OH [modified 15-mer peptide … (SEQ ID NO: 176)]
IC50 (HLA-DQ7.5 [6]): 28.6 µM

QGQEGYYPTSPEQSG-OH [P1b, deamidated HMW glutenin 15-mer peptide … (SEQ ID NO: 50)]
IC50 (HLA-DQ8 [7]): 3.75 µM | IC50 (HLA-DQ2.5 [8]): 3.29 µM

— patent publication US20230416314A1, “MODIFIED HIGH MOLECULAR WEIGHT GLUTENIN SUBUNIT AND USES THEREOF” (Ukko Inc., priority 2020, published 2023)
